Measurements reported in patent US7589104B2, “Tricyclic-bridged piperidinyline derivatives as §-opioid modulators” (Janssen Pharmaceutica NV, priority 2004, dated 2009).
Like-named read-outs stand apart in the source and are kept apart here.

Key:
mu opioid receptor = molecular target: T1, mu opioid receptor (Rattus norvegicus, UniProt P33535); assay: Rat Brain Mu Opioid Receptor Binding Assay
T1 construct: Following incubation with the mu selective peptide ligand, ˜0.8 nM [^3H]DAMGO; from tissue; host or cells: forebrain of male Wistar rats (Charles River)
T1 sequence (P33535 whole entry): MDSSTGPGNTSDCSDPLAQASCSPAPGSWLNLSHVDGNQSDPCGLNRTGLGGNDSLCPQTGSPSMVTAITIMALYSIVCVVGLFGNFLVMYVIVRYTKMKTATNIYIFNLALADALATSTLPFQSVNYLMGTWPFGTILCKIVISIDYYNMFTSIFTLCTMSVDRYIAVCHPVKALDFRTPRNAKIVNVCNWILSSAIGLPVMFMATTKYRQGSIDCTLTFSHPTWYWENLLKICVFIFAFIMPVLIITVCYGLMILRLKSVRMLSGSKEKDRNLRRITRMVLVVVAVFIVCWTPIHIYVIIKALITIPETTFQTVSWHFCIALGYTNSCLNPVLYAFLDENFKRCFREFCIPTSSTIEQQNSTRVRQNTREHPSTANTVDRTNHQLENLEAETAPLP

delta opioid receptor [1] = molecular target: T2, delta opioid receptor (Rattus norvegicus, UniProt P33533); assay: Rat Brain Delta Opioid Receptor Binding Assay
T2 construct: from tissue; host or cells: forebrain of male Wistar rats (Charles River)
T2 sequence (P33533 whole entry): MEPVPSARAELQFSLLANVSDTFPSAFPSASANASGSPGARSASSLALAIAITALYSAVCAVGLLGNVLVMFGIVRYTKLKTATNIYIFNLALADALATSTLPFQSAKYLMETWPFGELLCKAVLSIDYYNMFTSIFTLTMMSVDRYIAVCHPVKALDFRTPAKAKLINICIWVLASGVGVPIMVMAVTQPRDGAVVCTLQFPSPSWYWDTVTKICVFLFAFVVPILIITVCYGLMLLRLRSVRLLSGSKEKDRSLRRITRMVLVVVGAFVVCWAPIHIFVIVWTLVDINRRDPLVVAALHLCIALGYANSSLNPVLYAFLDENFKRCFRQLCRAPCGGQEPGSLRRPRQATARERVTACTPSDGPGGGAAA

delta opioid receptor [2] = molecular target: T3, delta opioid receptor (Mus musculus, UniProt P32300); assay: [35S]GTPγS Binding Assay in NG108-15 Cell Membranes (Delta Opioid); assay type: biochemical; conditions: for delta GTPgS Rel Eff: relative efficacy
T3 construct: NG108-15 cell membranes were purchased from Applied Cell Sciences (Rockville, Md.); host or cells: NG108-15 cell membranes (purchased)
T3 sequence (P32300 whole entry): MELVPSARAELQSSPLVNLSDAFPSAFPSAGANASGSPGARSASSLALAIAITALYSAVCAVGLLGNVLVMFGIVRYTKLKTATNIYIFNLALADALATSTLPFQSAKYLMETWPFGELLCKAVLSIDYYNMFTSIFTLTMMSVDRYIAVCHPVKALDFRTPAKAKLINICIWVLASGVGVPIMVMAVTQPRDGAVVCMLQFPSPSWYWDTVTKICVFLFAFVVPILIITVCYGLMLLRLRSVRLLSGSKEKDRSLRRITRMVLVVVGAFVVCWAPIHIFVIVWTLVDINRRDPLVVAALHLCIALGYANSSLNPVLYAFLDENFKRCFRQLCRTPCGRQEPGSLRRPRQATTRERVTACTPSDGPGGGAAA
Protocol: Methods: NG108-15 cell membranes were purchased from Applied Cell Sciences (Rockville, Md.). 8 mg/mL of membrane protein suspended in 10 mM TRIS-HCl pH 7.2, 2 mM EDTA, 10% sucrose. Membranes were maintained at 4-8° C. A 1 mL volume of membranes was added into 10 mL cold binding assay buffer. The assay buffer contained 50 mM Tris, pH 7.6, 5 mM MgCl2, 100 mM NaCl, 1 mM DTT and 1 mM EGTA. The membrane suspension was homogenized twice with a Polytron, and centrifuged at 3000 rpm for 10 min. The supernatant was then centrifuged at 18,000 rpm for 20 min. Ten mL assay buffer was added into the pellet containing tube. The pellet and buffer were mixed with a Polytron.
Incubation procedure: The pellet membranes (75 μg/mL) were preincubated with SPA (10 mg/mL) at 25° C. for 45 min in the assay buffer. […] GTPγS in the same Tris buffer containing 100 μM GDP in total volume of 200 μL. Increasing concentrations of receptor agonists were used to stimulate [35S]- GTPγS binding. The basal binding was tested in the absence of agonists and non-specific binding was tested in the presence of 10 μM unlabeled GTPγS. The data were analyzed on a Packard Top Count.
% of Basal=(stimulated−non specific)*100/(basal−non specific). EC50 values were calculated using GraphPad Prism.

[3] = rat forebrain membranes, [3H]DAMGO, read-out: mu (Ki)
[4] = rat forebrain membranes, [3H]DPDPE or [3H]naltrindole, read-out: delta (Ki)
[5] = NG108-15 cell membranes, stimulation of [35S]GTPγS binding, read-out: delta GTPgS EC50

Molecule | Ki (mu opioid receptor; [3]) [nM] | Ki (delta opioid receptor [1]; [4]) [nM] | delta GTPgS Rel Eff (delta opioid receptor [2]; NG108-15 cell membranes) | EC50 (delta opioid receptor [2]; [5]) [nM] | Ki (mu opioid receptor) [nM] | Ki (delta opioid receptor [1]) [nM] | EC50 (delta opioid receptor [2]) [nM]
9-(8-Furan-3-ylmethyl-8-aza-bicyclo[3.2.1]oct-3-ylidene)-9H-xanthene-3-carboxylic acid diethylamide [Compound 10a] | 546 | 12.3 | 0.75 | 21.1 |  |  | 
CCN(CC)C(=O)c1ccc2c(c1)Oc1c(OC)cccc1C2C1CC2CCC(C1)N2 (stereo not shown) [Compound 7c, 9-(8-Aza-bicyclo[3.2.1]oct-3-yl)-5-methoxy-9H-xanthene-3-carboxylic acid diethylamide] |  |  | 0.80 |  | 463 | 3.1 | 29.2
CCN(CC)C(=O)c1ccc2c(c1)Oc1c(O)cccc1C2C1CC2CCC(C1)N2 (stereo not shown) [Compound 8c, 9-(8-Aza-bicyclo[3.2.1]oct-3-yl)-5-hydroxy-9H-xanthene-3-carboxylic acid diethylamide] |  |  | 0.85 |  | 75 | 1.29 | 5
CCN(CC)C(=O)c1ccc2c(c1)Oc1c(O)cccc1C2C1CC2CCC(C1)N2Cc1ccoc1 (stereo not shown) [Compound 9c, 9-(8-Furan-3-ylmethyl-8-aza-bicyclo[3.2.1]oct-3-yl)-5-hydroxy-9H-xanthene-3-carboxylic acid diethylamide] |  |  | 1.02 |  | 73 | 0.73 | 4.6
CCN(CC)C(=O)c1ccc2c(c1)Oc1c(O)cccc1C2C1CC2CCC(C1)N2Cc1ncc[nH]1 (stereo not shown) [Compound 10c, 5-Hydroxy-9-[8-(1H-imidazol-2-ylmethyl)-8-aza-bicyclo[3.2.1]oct-3-yl]-9H-xanthene-3-carboxylic acid diethylamide] |  |  | 0.94 |  | 70 | 0.32 | 6.4
CCN(CC)C(=O)c1ccc2c(c1)Oc1ccccc1C2C1CC2CCC(C1)N2Cc1ccccc1 (stereo not shown) [Compound 11a, 9-(8-Benzyl-8-aza-bicyclo[3.2.1]oct-3-yl)-9H-xanthene-3-carboxylic acid diethylamide] |  |  | 0.78 |  | 1120 | 19.9 | 118
CCN(CC)C(=O)c1ccc2c(c1)Oc1ccccc1C2C1CC2CCC(C1)N2Cc1cccs1 (stereo not shown) [Compound 14a, 9-(8-Thiophen-2-ylmethyl-8-aza-bicyclo[3.2.1]oct-3-yl)-9H-xanthene-3-carboxylic acid diethylamide] |  |  | 0.65 |  | 1650 | 18.7 | 96.9
CCN(CC)C(=O)c1ccc2c(c1)Oc1ccccc1C2C1CC2CCC(C1)N2Cc1ccccn1 (stereo not shown) [Compound 15a, 9-(8-Pyridin-2-ylmethyl-8-aza-bicyclo[3.2.1]oct-3-yl)-9H-xanthene-3-carboxylic acid diethylamide] | 1410 |  |  | 155 |  | 11.1 | 
CC(=O)Nc1ccccc1-c1ccc2c(c1)Oc1ccccc1C2C1CC2CCC(C1)N2Cc1ccccn1 (stereo not shown) [Compound 15b, N-{2-[9-(8-Pyridin-2-ylmethyl-8-aza-bicyclo[3.2.1]oct-3-yl)-9H-xanthen-3-yl]-phenyl}-acetamide] |  |  |  |  | 947 | 102 | 
CCN(CC)C(=O)c1ccc2c(c1)Oc1ccccc1C2C1CC2CCC(C1)N2Cc1ncc[nH]1 (stereo not shown) [Compound 16a, 9-[8-(1H-Imidazol-2-ylmethyl)-8-aza-bicyclo[3.2.1]oct-3-yl]-9H-xanthene-3-carboxylic acid diethylamide] |  |  |  |  | 2000 | 114 | 
CC(=O)Nc1ccccc1-c1ccc2c(c1)Oc1ccccc1C2C1CC2CCC(C1)N2Cc1ccccc1 (stereo not shown) [Compound 16b, N-{2-[9-(8-Benzyl-8-aza-bicyclo[3.2.1]oct-3-yl)-9H-xanthen-3-yl]-phenyl}-acetamide] |  |  |  |  | > 10000 | > 10000 | 
CCN(CC)C(=O)c1ccc2c(c1)Oc1ccccc1C2C1CC2CCC(C1)N2C (stereo not shown) [Compound 17a, 9-(8-Methyl-8-aza-bicyclo[3.2.1]oct-3-yl)-9H-xanthene-3-carboxylic acid diethylamide] |  |  |  |  | > 10000 | > 10000 | 
CC(=O)Nc1ccccc1-c1ccc2c(c1)Oc1ccccc1C2C1CC2CCC(C1)N2CCc1ccccc1 (stereo not shown) [Compound 17b, N-{2-[9-(8-Phenethyl-8-aza-bicyclo[3.2.1]oct-3-yl)-9H-xanthen-3-yl]-phenyl}-acetamide] | 116 |  |  |  |  | 64.8 | 
C=CCN1C2CCC1CC(C1c3ccccc3Oc3cc(-c4ccccc4NC(C)=O)ccc31)C2 (stereo not shown) [Compound 18b, N-{2-[9-(8-Allyl-8-aza-bicyclo[3.2.1]oct-3-yl)-9H-xanthen-3-yl]-phenyl}-acetamide] | 3200 | 408 |  |  |  |  | 
c1ccc2c(c1)Oc1cc(-c3ccncc3)ccc1C2C1CC2CCC(C1)N2 (stereo not shown) [Compound 20b, 3-(3-Pyridin-4-yl-9H-xanthen-9-yl)-8-aza-bicyclo[3.2.1]octane] |  |  |  |  | 3490 | 194 | 
c1csc(CN2C3CCC2CC(C2c4ccccc4Oc4cc(-c5ccncc5)ccc42)C3)c1 (stereo not shown) [Compound 21b, 3-(3-Pyridin-4-yl-9H-xanthen-9-yl)-8-thiophen-2-ylmethyl-8-aza-bicyclo[3.2.1]octane] |  |  |  |  | 930 | 98 | 
c1ccc(CN2C3CCC2CC(C2c4ccccc4Oc4cc(-c5ccncc5)ccc42)C3)nc1 (stereo not shown) [Compound 22b, 8-Pyridin-2-ylmethyl-3-(3-pyridin-4-yl-9H-xanthen-9-yl)-8-aza-bicyclo[3.2.1]octane] |  |  |  |  | 305 | 71.6 | 
c1ccc(CN2C3CCC2CC(C2c4ccccc4Oc4cc(-c5ccncc5)ccc42)C3)cc1 (stereo not shown) [Compound 23b, 8-Benzyl-3-(3-pyridin-4-yl-9H-xanthen-9-yl)-8-aza-bicyclo[3.2.1]octane] |  |  |  |  | 890 | 99.7 | 
c1ccc(CCN2C3CCC2CC(C2c4ccccc4Oc4cc(-c5ccncc5)ccc42)C3)cc1 (stereo not shown) [Compound 24b, 8-Phenethyl-3-(3-pyridin-4-yl-9H-xanthen-9-yl)-8-aza-bicyclo[3.2.1]octane] |  |  |  |  | 196 | 1590 | 
c1ccc2c(c1)Oc1cc(-c3ccncc3)ccc1C2C1CC2CCC(C1)N2Cc1ccoc1 (stereo not shown) [Compound 25b, 8-Furan-3-ylmethyl-3-(3-pyridin-4-yl-9H-xanthen-9-yl)-8-aza-bicyclo[3.2.1]octane] |  |  |  |  | 775 | 22.4 | 
